Measured values published in ChEMBL document CHEMBL1157539, “Thousands of chemical starting points for antimalarial lead identification” (Nature, 2010).

The compounds below were run on Plasmodium falciparum (assay: GSK_TCMDC: Inhibition of Plasmodium falciparum 3D7 in whole erythrocytes, using parasite LDH activity as an index of growth.). Settings: Plasmodium falciparum, 3D7.
Format: functional, organism-based

Compound | XC50 [nM]
O=C(C=Cc1ccc(Cl)c(Cl)c1)NCCCCCN1CCCC(CCCNC(=O)/C=C/c2ccccc2)C1 (centres undefined) | 593
Nc1nc2c(ncn2OC[C@H](CO)OCP(=O)(O)O)c(=O)[nH]1 | 341
Clc1ccc(-c2nc(-c3ccncc3)c[nH]2)cc1Cl | 1060
O=C1CC(C(=O)O)CC(=O)N1 | 763
CC(C)CNCc1cccc(-c2ccc(CNC3CCN(Cc4ccccc4)CC3)cc2)c1 | 271
Cc1ccccc1C1CCN(C2CCC(NC(=O)/C=C/c3cccc(F)c3F)CC2)CC1 (centres undefined) | 1150
COc1cccc(-c2cnc(N)c(-c3nc4ccc(C(F)(F)F)cc4[nH]3)c2)c1 | 652
Cc1[nH]c(C)c(-c2ccc(Oc3ccc(Cl)cc3)cc2)c(=O)c1Cl | 787
N#Cc1cccc(C(=O)Nc2cccc(-c3ccc(CN4CCC(O)CC4)cc3)c2)c1 | 1300
COc1ccc(CC(C)CON2C(N)=NC(N)=NC2(C)C)cc1 (centres undefined) | 3.2
CN1CCN(c2cc(NC(=O)c3ccc(-c4ccc(C#N)cc4)cc3)ccc2Cl)CC1 | 464
COc1ccc(CN2CCC(CNCC(c3ccccc3)c3ccccc3)CC2)cc1 | 228
Cc1cccc(C(=O)Nc2ccnc(N(C)C3CCN(Cc4cccc(O)c4)CC3)c2)c1 | 944
COc1ccc(C=C2SC(=N)N(c3ccccc3OC)C2=O)cc1 | 300
COc1ccc(-c2ccc(NC(=O)c3ccc(Cl)cc3)cc2)cc1CN1CCCN(C)CC1 | 648
CCN(CC)CCN(Cc1ccc(-c2ccc(C(F)(F)F)cc2)cc1)C(=O)Cn1c(CCc2c(F)ccc(F)c2F)nc(=O)c2ccccc21 | 238
CS(=O)(=O)Nc1ccc2[nH]cc(C3CCN(CC4CCC(NC(=O)/C=C/c5ccc(Cl)c(Cl)c5)CC4)CC3)c2c1 (centres undefined) | 847
Oc1cc(Nc2ccnc3cc(-c4ccc(CN5CCCCC5)o4)ccc23)c(Cl)cc1F | 122
Cc1cc(F)ccc1Oc1nc(Nc2ccc(N3CCOCC3)c(F)c2)nc2c1S(=O)(=O)CCC2 | 462
O=C(/C=C/c1ccc(Cl)c(Cl)c1)NCC1CCN(Cc2ccc(O)cc2)CC1 | 694

Compound | XC50 [nM]
O=C(Nc1ccc(Cl)cc1)NC1CCN(CCCCCNC(=O)C2CC2c2ccc(Cl)c(Cl)c2)CC1 (centres undefined) | 576
O=C(Nc1ccc(C(F)(F)F)cc1)NC1CCN(CCCCCNC(=O)C2CC2c2ccc(Cl)c(Cl)c2)CC1 (centres undefined) | 626
CC(C)C[C@H](NC(=O)c1cc(-c2ccc(F)cc2)no1)C(=O)O.CC(C)C[C@H](NC(=O)c1conc1-c1ccc(F)cc1)C(=O)O | 979
CN(C)CC(=O)Nc1ccc(-c2ccc3ccnc(N)c3c2)cc1 | 33.1
NC1=NC2(CCCCC2)N(OCCCCCCc2ccccc2)C(N)=N1 | 347
CC(C)COc1ccc2ccccc2c1CNCCCCCCNCc1c(OCC(C)C)ccc2ccccc12 | 695
CC(C)CCN(Cc1cncn1Cc1cccc(C(F)(F)F)c1)C(=O)c1ccccc1C#N | 614
Cc1cc(N[C@@H](CC(C)C)C(=O)NC2CCCC2)nc(NCc2ccccc2C)n1 | 1340
CN(C)CCN(C)Cc1ccc(-c2ccc(NS(=O)(=O)c3cccc4cccnc34)cc2)cc1 | 864
Cc1cccc2nc(-c3cccc(-c4cccc(NC(=O)NCc5ccccc5)c4)c3)[nH]c12 | 521
CS(=O)(=O)Cc1cccc(Nc2ncc(Cl)c(Nc3cccnc3C(N)=O)n2)c1 | 168
CC(C)(C)c1cc(C(=O)Nc2cccnc2)cc(C(=O)Nc2cccnc2)c1 | 761
COc1cccc(CCc2nc3c(N4CCC(Cc5ccccc5)CC4)cccc3n2CC2CNCCO2)c1 (centres undefined) | 800
CC(C)c1ccc(NC(S)=NN=Cc2ccccn2)cc1 | 724
Cc1ccc(C)c(NC(=O)CC2C(=O)N(c3ccccc3)C(=S)N2Cc2ccco2)c1 (centres undefined) | 570
O=C(c1cc2ccccc2o1)N1CCc2cc3nccc(N4CCN5CCC[C@H]5C4)c3cc21 | 812
COc1ccc2nc(C)cc(Nc3ccc(Oc4ccc(Cl)c5ccccc45)c(Cl)c3)c2c1 | 730
N=C(N)Nc1nc(-c2cccc(NC(=O)NCC(c3ccccc3)c3ccccc3)c2)cs1 | 791
Cc1c(CCC#N)c(NCc2ccccc2)n2c(nc3ccccc32)c1C#N | 876
